Reference: patent US4324800A, “Novel benzylalcohol derivatives and processes for preparing same” (Tanabe Seiyaku Co., Ltd., priority 1980, dated 1982)

Tested on: ventricular contractile force
Assay: Ventricular contractile force in anesthetized open-chest dogs (strain gauge on left ventricle), i.v. injection into left saphenous vein
Assay type: in vivo
Conditions: for ED (30% increase): Canis lupus familiaris, iv, male dogs, anesthetized, injected into left saphenous vein, read-out: Dose which induces about 30% increase in the ventricular contractile force; for t 1/2: period of time in decreasing the cardiac contractile force to 50% of its maximum value: male dogs 11 to 13 kg, sodium pentobarbital anesthesia, i.v., dose inducing about 30% increase in ventricular contractile force, ± S.E.
Experimental: Male dogs weighing about 11 to 13 kg were anesthetized with sodium pentobarbital (30 mg/kg, i.v.). Under artificial respiration, the heart was exposed by thoractomy, and a calibrated strain gauge was attached to the wall of the left ventricle for oscillographical measurement of the ventricular contractile force. The heart rate was recorded by cardiotachography, triggered by arterial pulse. A test compound was injected into the left saphenous vein at a dose which induces about 30% increase in the ventricular contractile force.
*:Period of time in decreasing the cardiac contractile force to 50% of it

Row | SMILES | ED (30% increase) [mg/kg] | t 1/2: period of time in decreasing the cardiac contractile force to 50% of its maximum value [min]
1 | COc1ccc(CCNCC(O)c2ccc(OC(=O)C(C)(C)C)cc2)cc1OC (stereo not drawn) [α-(3,4-dimethoxyphenethylaminomethyl)-4-pivaloyloxybenzylalcohol] | 0.037 | 20.53 ± 1.18
2 | COc1ccc(CCNCC(O)c2ccc(OC(=O)c3ccc(C)cc3)cc2)cc1OC (stereo not drawn) [α-(3,4-dimethoxyphenethylaminomethyl)-4-p-toluoyloxybenzylalcohol] | 0.04 | 24.92 ± 0.417
3 | COc1ccc(CCNCC(O)c2ccc(OC(=O)c3ccccc3)cc2)cc1OC (stereo not drawn) [α-(3,4-dimethoxyphenethylaminomethyl)-4-benzoyloxybenzylalcohol] | 0.039 | 24.22 ± 0.717
